Converted amounts (≈) assume the structure as drawn.
Experiments:
[1] = system: Human immunodeficiency virus 1; test: Antiviral activity against wild type HIV-1 IIIB infected in human MT4 cells assessed as protection against virus-induced cytopathic effect incubated for 5 days by MTT assay; type: functional, organism-based; settings: Human immunodeficiency virus 1, IIIB, MT4, 120 h
[2] = system: Human immunodeficiency virus 1; test: Antiviral activity against HIV-1 RES056 harboring RT K103N/Y181C double mutant infected in human MT4 cells assessed as protection against virus-induced cytopathic effect incubated for 5 days by MTT assay; type: functional, organism-based; settings: Human immunodeficiency virus 1, RES056, MT4, 120 h
[3] = Cytotoxicity against human MT4 cells assessed as reduction in cell viability measured after 5 days by MTT assay; type: toxicity, cell-based; settings: time 5 day
[4] = Selectivity index, ratio of CC50 for cytotoxicity against human MT4 cells to EC50 for antiviral activity against wild type HIV-1 IIIB infected in human MT4 cells; type: toxicity, cell-based; settings: read-out: Ratio CC50/EC50
[5] = Selectivity index, ratio of CC50 for cytotoxicity against human MT4 cells to EC50 for antiviral activity against HIV-1 RES056 harboring RT K103N/Y181C double mutant infected in human MT4 cells; type: toxicity, cell-based; settings: read-out: Ratio CC50/EC50
[6] = system: Human immunodeficiency virus 1; test: Antiviral activity against HIV-1 harboring RT L100I mutant infected in human MT4 cells assessed as protection against virus-induced cytopathic effect incubated for 5 days by MTT assay; type: functional, organism-based; settings: Human immunodeficiency virus 1, MT4, 120 h
[7] = system: Human immunodeficiency virus 1; test: Antiviral activity against HIV-1 harboring RT K103N mutant infected in human MT4 cells assessed as protection against virus-induced cytopathic effect incubated for 5 days by MTT assay; type: functional, organism-based; settings: Human immunodeficiency virus 1, MT4, 120 h
[8] = system: Human immunodeficiency virus 1; test: Antiviral activity against HIV-1 harboring RT Y181C mutant infected in human MT4 cells assessed as protection against virus-induced cytopathic effect incubated for 5 days by MTT assay; type: functional, organism-based; settings: Human immunodeficiency virus 1, MT4, 120 h
[9] = system: Human immunodeficiency virus 1; test: Antiviral activity against HIV-1 harboring RT Y188L mutant infected in human MT4 cells assessed as protection against virus-induced cytopathic effect incubated for 5 days by MTT assay; type: functional, organism-based; settings: Human immunodeficiency virus 1, MT4, 120 h
[10] = system: Human immunodeficiency virus 1; test: Antiviral activity against HIV-1 harboring RT E138K mutant infected in human MT4 cells assessed as protection against virus-induced cytopathic effect incubated for 5 days by MTT assay; type: functional, organism-based; settings: Human immunodeficiency virus 1, MT4, 120 h
[11] = system: Human immunodeficiency virus 1; test: Antiviral activity against HIV-1 harboring RT F227L/V106A double mutant infected in human MT4 cells assessed as protection against virus-induced cytopathic effect incubated for 5 days by MTT assay; type: functional, organism-based; settings: Human immunodeficiency virus 1, MT4, 120 h
[12] = molecular target: T1, Human immunodeficiency virus type 1 reverse transcriptase (Human immunodeficiency virus 1, UniProt Q72547); test: Binding affinity to HIV-1 reverse transcriptase assessed as dissociation constant by SPR analysis
[13] = molecular target: T1, Human immunodeficiency virus type 1 reverse transcriptase; test: Inhibition of wild type recombinant HIV-1 reverse transcriptase using biotin-labelled dNTPs as substrate assessed as inhibition of biotin-labelled UTP incorporation incubated for 1 hr by ELISA
[14] = Aqueous solubility of compound at pH 2 at 0.1 to 10 mg; type: physicochemical; settings: aqueous medium, dose 0.1-10 mg
[15] = Aqueous solubility of compound at pH 7 at 0.1 to 10 mg; type: physicochemical; settings: aqueous medium, dose 0.1-10 mg
[16] = Aqueous solubility of compound at pH 7.4 at 0.1 to 10 mg; type: physicochemical; settings: aqueous medium, dose 0.1-10 mg
[17] = system: Human immunodeficiency virus 1; test: Potency index, ratio of Etravirine EC50 to test compound EC50 for antiviral activity against HIV-1 harboring RT K103N mutant infected in human MT4 cells assessed as protection against virus-induced cytopathic effect incubated for 5 days by MTT assay; type: functional; settings: time 5 day
[18] = system: Human immunodeficiency virus 1; test: Potency index, ratio of Etravirine EC50 to test compound EC50 for antiviral activity against HIV-1 harboring RT E138K mutant infected in human MT4 cells assessed as protection against virus-induced cytopathic effect incubated for 5 days by MTT assay; type: functional; settings: time 5 day

Row | Structure (SMILES) | EC50 [1] [nM] | EC50 [2] [nM] | CC50 at 120 h [3] [µM] | selectivity ratio [4] | selectivity ratio [5] | EC50 [6] [nM] | EC50 [7] [nM] | EC50 [8] [nM] | EC50 [9] [nM] | EC50 [10] [nM] | EC50 [11] [nM] | Kd [12] [nM] | IC50 [13] [nM] | solubility [14] [µg/mL] | solubility [15] [µg/mL] | solubility [16] [µg/mL] | Ratio EC50 [17] | Ratio EC50 [18]
1 | Cc1cc(/C=C/C#N)cc(C)c1Oc1nc(Nc2ccc(C#N)c(F)c2)nc2c1COC2 | 2.22 | 53.3 | 45.6 | 20600 | 857 | 3.04 | 2.87 | 10.2 | 13.2 | 9.77 | 19.8 | 2500 | 50 | 23.1 (≈ 54 µM) | 12.3 (≈ 28.8 µM) | 5.7 (≈ 13.3 µM) |  | 
2 | N#C/C=C/c1cc(F)c(Oc2nc(Nc3ccc(C#N)nc3)nc3ccsc23)c(F)c1 | 1.79 | 2200 | 47.5 | 26500 | 22 | 19.2 | 2.55 | 66.5 | > 47500 | 7.46 | 1450 |  | 40 |  |  |  | 2 | 2
3 | Cc1cc(/C=C/C#N)cc(C)c1Oc1nc(Nc2ccc(C#N)nc2)nc2c1COC2 | 2.4 | 71.7 | 213 | 88900 | 2980 | 6.64 | 1.34 | 9.75 | 44.6 | 3.23 | 110 |  | 40 |  |  |  |  | 

From ChEMBL document CHEMBL5236598, “Lead Optimization and Avoidance of Metabolic-perturbing Motif Developing Novel Diarylpyrimidines as Potent HIV-1 NNRTIs” (J Med Chem, 2022)
